Patent US20240318220A1, “IONIC LIQUIDS BASED ON UNNATURAL AMINO ACIDS, PREPARATION METHODS THEREOF, AND APPLICATIONS THEREOF” (PEKING UNIVERSITY, priority 2022, published 2024)

Key:
[1] = Serum concentration curve of NAEK after oral administration; assay type: in vivo; settings: mice, 30 mg NAEK or equimolar amount
Description: FIG. 5B. […] The NAEK content in the serum reached a maximum of about 1.6 μg/mL two hours after oral administration, as evidenced by the curve in the NAEK-aqueous solution group. Subsequently, 8 hours after oral administration, the NAEK content in the serum diminished to nearly zero, indicating rapid metabolism of NAEK, which could be completed in 6 hours. […] Furthermore, only 22 hours after oral administration, the serum NAEK content approached zero, indicating complete metabolism within approximately […].
Two experimental groups were set, with 12 mice in each group. In one group, each mouse was orally administered with 30 mg NAEK aqueous solution, and in the other group, each mouse was orally administered with an equimolar amount of Ch-NAEK. Blood was collected from the orbital plexus of the mice at 1 h, 2 h, 4 h, 6 h, 8 h, 9 h, 10 h, 14 h, 19 h, and 22 h time points to plot the NAEK serum concentration in mice as function of time (FIG. 5B).

mdx mice = experiment: Full-length expression of Dystrophin in muscle tissue by immunoblotting; assay type: in vivo; settings: mdx mice with AAV-MmpylRS-tRNA, oral, 2 weeks
Description: FIG. 12. Flow Diagram of Treating DMD Disease in Mdx Mouse Model Using Ionic Liquid Ch-NAEK and the Codon Expansion System Experimental exploration was conducted to investigate the treatment of DMD disease. Following successful synthesis, identification and activity evaluation of the three ionic liquids Ch-NAEK, Ch-pAcF and Ch-Anap, Ch-NAEK was selected as the preferred ionic liquid for subsequent disease treatment. mdx mice with DMD disease were initially intramuscularly injected with AAV-MmpylRS-tRNA virus and subsequently orally administered with Ch-NAEK (at a mass volume fraction of 70%) daily for four weeks. Muscle tissue samples were collected in the first, second, and fourth weeks for detection of Dystrophin protein restoration. HE pathological staining of mouse muscle tissue, determination of serum CK kinase content, and testing of mouse grip strength were performed.
mdx mice, a classic mouse model for DMD (Duchenne Muscular Dystrophy) research, have a nonsense mutation of TAA at the […] of Dystrophin exon, resulting in the failure of normal expression of Dystrophin, and thus leading to symptoms of muscle atrophy in muscle and heart tissues in mice. mdx mice injected with AAV-MmpylRS-tRNA virus were divided into two experimental groups. […] The therapeutic effects were evaluated at the time points of 1, 2, and 4 weeks after administration. […]

- maximum NAEK content in serum [1]: about 1.6 μg/mL
- time after oral administration at which serum NAEK content approached zero [1]: 8 h
- time for complete metabolism of NAEK [1]: 6 h
- time of maximum serum NAEK content after oral administration [1]: two
SMILES: [N-]=[N+]=NCCOC(=O)NCCCC[C@H](N)C(=O)O [NAEK-aqueous solution]
- restoration of full-length disease protein (Dystrophin) expression, in words (mdx mice): very low
